Experimental data reported in ChEMBL document CHEMBL5724914, “Linking interpersonal differences in gut microbiota composition and drug biotransformation activity” (2024).

Key:
[1] = The drug is tested on Z-021 corresponding to metagenome with ENA study accession number: PRJEB37062 and ENA sample accession number: ERS12561820 for biotransformation under anaerobic condition. The drug concentrations were measured over 9 timepoints collected between 0 and 24 hours of incubation by liquid-chromatography-coupled mass spectrometry (LC–MS); conditions: 2 µM
[2] = The drug is tested on Z-020 corresponding to rabbit gut metagenome with ENA study accession number: PRJEB37062 and ENA sample accession number: ERS12561819 for biotransformation under anaerobic condition. The drug concentrations were measured over 9 timepoints collected between 0 and 24 hours of incubation by liquid-chromatography-coupled mass spectrometry (LC–MS); conditions: 2 µM
[3] = The drug is tested on Z-019 corresponding to rat gut metagenome with ENA study accession number: PRJEB37062 and ENA sample accession number: ERS12561818 for biotransformation under anaerobic condition. The drug concentrations were measured over 9 timepoints collected between 0 and 24 hours of incubation by liquid-chromatography-coupled mass spectrometry (LC–MS); conditions: 2 µM
[4] = The drug is tested on Z-018 corresponding to pig gut metagenome with ENA study accession number: PRJEB37062 and ENA sample accession number: ERS12561817 for biotransformation under anaerobic condition. The drug concentrations were measured over 9 timepoints collected between 0 and 24 hours of incubation by liquid-chromatography-coupled mass spectrometry (LC–MS); conditions: 2 µM
[5] = The drug is tested on Z-017 corresponding to mouse gut metagenome with ENA study accession number: PRJEB37062 and ENA sample accession number: ERS12561816 for biotransformation under anaerobic condition. The drug concentrations were measured over 9 timepoints collected between 0 and 24 hours of incubation by liquid-chromatography-coupled mass spectrometry (LC–MS); conditions: 2 µM
[6] = The drug is tested on Z-016 corresponding to mouse gut metagenome with ENA study accession number: PRJEB37062 and ENA sample accession number: ERS12561815 for biotransformation under anaerobic condition. The drug concentrations were measured over 9 timepoints collected between 0 and 24 hours of incubation by liquid-chromatography-coupled mass spectrometry (LC–MS); conditions: 2 µM
[7] = The drug is tested on Z-001 corresponding to mouse gut metagenome with ENA study accession number: PRJEB37062 and ENA sample accession number: ERS12561801 for biotransformation under anaerobic condition. The drug concentrations were measured over 9 timepoints collected between 0 and 24 hours of incubation by liquid-chromatography-coupled mass spectrometry (LC–MS); conditions: 2 µM
[8] = The drug is tested on WLS-350 corresponding to human gut metagenome with ENA study accession number: PRJEB37062 and ENA sample accession number: ERS12561789 for biotransformation under anaerobic condition. The drug concentrations were measured over 9 timepoints collected between 0 and 24 hours of incubation by liquid-chromatography-coupled mass spectrometry (LC–MS); conditions: 2 µM
[9] = The drug is tested on WLS-220 corresponding to human gut metagenome with ENA study accession number: PRJEB37062 and ENA sample accession number: ERS12561769 for biotransformation under anaerobic condition. The drug concentrations were measured over 9 timepoints collected between 0 and 24 hours of incubation by liquid-chromatography-coupled mass spectrometry (LC–MS); conditions: 2 µM
[10] = The drug is tested on WLS-082 corresponding to human gut metagenome with ENA study accession number: PRJEB37062 and ENA sample accession number: ERS12561751 for biotransformation under anaerobic condition. The drug concentrations were measured over 9 timepoints collected between 0 and 24 hours of incubation by liquid-chromatography-coupled mass spectrometry (LC–MS); conditions: 2 µM
[11] = The drug is tested on WLS-039 corresponding to human gut metagenome with ENA study accession number: PRJEB37062 and ENA sample accession number: ERS12561746 for biotransformation under anaerobic condition. The drug concentrations were measured over 9 timepoints collected between 0 and 24 hours of incubation by liquid-chromatography-coupled mass spectrometry (LC–MS); conditions: 2 µM
[12] = human gut metagenome, 24 h, 2 µM
[13] = human gut metagenome, 24 h, 2 µM; remark: listed apart in the source
[14] = human gut metagenome, 24 h, 2 µM; remark: listed apart in the source
[15] = human gut metagenome, 24 h, 2 µM; remark: listed apart in the source
[16] = human gut metagenome, 24 h, 2 µM; remark: listed apart in the source
[17] = human gut metagenome, 24 h, 2 µM; remark: listed apart in the source
[18] = human gut metagenome, 24 h, 2 µM; remark: listed apart in the source
[19] = human gut metagenome, 24 h, 2 µM; remark: listed apart in the source
[20] = human gut metagenome, 24 h, 2 µM; remark: listed apart in the source
Further: call rule not given here.

SMILES	Bacterial Biotransformation [1]	Bacterial Biotransformation [2]	Bacterial Biotransformation [3]	Bacterial Biotransformation [4]	Bacterial Biotransformation [5]	Bacterial Biotransformation [6]	Bacterial Biotransformation [7]	Bacterial Biotransformation [8]	Bacterial Biotransformation [9]	Bacterial Biotransformation [10]	Bacterial Biotransformation [11]	Bacterial Biotransformation [12]	Bacterial Biotransformation [13]	Bacterial Biotransformation [14]	Bacterial Biotransformation [15]	Bacterial Biotransformation [16]	Bacterial Biotransformation [17]	Bacterial Biotransformation [18]	Bacterial Biotransformation [19]	Bacterial Biotransformation [20]
NS(=O)(=O)c1cc2c(cc1Cl)N=C(CSCc1ccccc1)NS2(=O)=O [BENZTHIAZIDE]	Compound metabolized	Compound NOT metabolized	Compound NOT metabolized	Compound NOT metabolized	Compound NOT metabolized	Compound NOT metabolized	Compound NOT metabolized	Compound NOT metabolized	Compound NOT metabolized	Compound NOT metabolized	Compound NOT metabolized	Compound NOT metabolized	Compound NOT metabolized	Compound NOT metabolized	Compound NOT metabolized	Compound NOT metabolized	Compound NOT metabolized	Compound NOT metabolized	Compound NOT metabolized	Compound NOT metabolized
CC(C)NCC(O)COc1ccc(COCCOC(C)C)cc1.CC(C)NCC(O)COc1ccc(COCCOC(C)C)cc1.O=C(O)/C=C/C(=O)O (stereo not given) [BISOPROLOL FUMARATE]	Compound metabolized	Compound NOT metabolized	Compound NOT metabolized	Compound NOT metabolized	Compound NOT metabolized	Compound NOT metabolized	Compound metabolized	Compound NOT metabolized	Compound metabolized	Compound NOT metabolized	Compound NOT metabolized	Compound metabolized	Compound NOT metabolized	Compound NOT metabolized	Compound metabolized	Compound metabolized	Compound NOT metabolized	Compound metabolized	Compound metabolized	Compound metabolized
CCCCCOC(=O)Nc1nc(=O)n([C@@H]2O[C@H](C)[C@@H](O)[C@H]2O)cc1F [CAPECITABINE]	Compound metabolized	Compound metabolized	Compound NOT metabolized	Compound metabolized	Compound metabolized	Compound metabolized	Compound metabolized	Compound metabolized	Compound metabolized	Compound metabolized	Compound metabolized	Compound metabolized	Compound metabolized	Compound metabolized	Compound metabolized	Compound metabolized	Compound metabolized	Compound metabolized	Compound metabolized	Compound metabolized
Cc1ccc(-c2cc(C(F)(F)F)nn2-c2ccc(S(N)(=O)=O)cc2)cc1 [CELECOXIB]	Compound NOT metabolized	Compound NOT metabolized	Compound NOT metabolized	Compound NOT metabolized	Compound NOT metabolized	Compound NOT metabolized	Compound NOT metabolized	Compound NOT metabolized	Compound metabolized	Compound metabolized	Compound metabolized	Compound NOT metabolized	Compound NOT metabolized	Compound metabolized	Compound metabolized	Compound metabolized	Compound NOT metabolized	Compound metabolized	Compound metabolized	Compound NOT metabolized
CN1C(=O)CCS(=O)(=O)C1c1ccc(Cl)cc1 (stereo not given) [CHLORMEZANONE]	Compound NOT metabolized	Compound NOT metabolized	Compound NOT metabolized	Compound NOT metabolized	Compound NOT metabolized	Compound NOT metabolized	Compound NOT metabolized	Compound NOT metabolized	Compound NOT metabolized	Compound NOT metabolized	Compound NOT metabolized	Compound NOT metabolized	Compound NOT metabolized	Compound NOT metabolized	Compound metabolized	Compound NOT metabolized	Compound NOT metabolized	Compound metabolized	Compound NOT metabolized	Compound NOT metabolized
